In publication PMC11189516, “Structure-guided conversion from an anaplastic lymphoma kinase inhibitor into Plasmodium lysyl-tRNA synthetase selective inhibitors” (Communications Biology, 2024):
“And” between values parts separate entries of the source, which are not always exact repeats. Equal entries are not always repeated. Where two headings read alike, the source gives them in different places. One block for each compound: values may come before it.

Experiments:
[1] = molecular target: T1, PfLysRS (Plasmodium falciparum, UniProt Q8IDJ8); assay: Thermal shift assay; format: binding; conditions: for ΔTm of PfLysRS / ΔTm at 200 µM: in the presence of L-lysine; for Tm of PfLysRS, Average / Tm of PfLysRS, single repeat: +Lysine
T1 construct: PfLysRS (77–583) was constructed in the vector pET20b, with a C-terminal 6×His tag; 6xHis (C); made in house; host or cells: E. coli BL21 (DE3)
Description: PfLysRS protein was prepared at 10 μM concentration in a buffer containing 20 mM Tris pH 8.0, 200 mM NaCl, 500 μM L-lysine, and 200 μM Compound. Aliquots (18 µL) were added to a 96-well PCR plate and incubated at ambient temperature for 10 min. SYPRO Orange dye (Sigma) was diluted in the assay buffer containing 20 mM Tris pH 8.0 and 200 mM NaCl to a 40× concentration, and 2 µL of the 40× dye solution was added to the PCR plate to bring the final assay volume to 20 µL. After complete mixing, the final solutions were heated from 25 to 90 °C at a rate of 0.015 °C per sec, and fluorescence signals were monitored by QuantStudio 3 (Applied Biosystems by Thermo Fisher Scientific).

[2] = molecular target: T1, PfLysRS; assay: ATP hydrolysis assay (Kinase-Glo) on PfLysRS; format: biochemical
Description: (§1) The ATP hydrolysis assays were based on Kinase-Glo luminescent Kit (Promega). The experiment was carried out in Corning 384-well white flat bottom microplates. The buffer in the reaction contains 25 mM Hepes pH 7.4, 140 mM NaCl, 40 mM MgCl2, 30 mM KCl, 1 mM TCEP, 0.1 mg·mL^−1 BSA, and 0.004% Tween-20. The compounds were diluted to different concentrations with a 5-fold gradient.
(§2) For LysRS assays, DMSO was added into negative control wells and L-lysine was removed in positive control wells. 100 nM LysRS in 2.5 μL Hepes buffer was mixed with compounds and incubated for 10 min. Then 5 μL substrate mixture (2 μM ATP, 10 μM L-lysine and 31 nM pyrophosphatase) was added to start the reaction at 37 °C and incubated for 6 h.
(§3) When the reaction reaches the planned time, 10 μL diluted Kinase-Glo reagent (1/50 diluted with a buffer containing 50 mM Tris pH 7.5 and 5% glycerol) was added and incubated for 15 min. Luminescence was measured on the Magellan plate reader (Tecan) and nonlinear regression was performed with Prism (GraphPad).

[3] = molecular target: T2, HsLysRS (Homo sapiens, UniProt Q15046); assay: ATP hydrolysis assay (Kinase-Glo) on HsLysRS; format: biochemical
T2 construct: HsLysRS (70–581) was constructed in the vector pET20b with a C-terminal 6×His tag; 6xHis (C); made in house; host or cells: E. coli (pET20b; 'purified similarly' to PfLysRS, which was expressed in BL21 (DE3))
Description: as §1, §2, §3

[4] = molecular target: T3, ALK (Homo sapiens, UniProt Q9UM73); assay: ATP hydrolysis assay (Kinase-Glo) on ALK; format: biochemical
T3 construct: The plasmid pCDNA3.1_8×His-tev-ALK (kinase domain, 1068–1410) was constructed; 8xHis (N); TEV site (N); made in house; host or cells: Expi293 cells (transient transfection)
Description: as §1
For ALK assays, DMSO was added into negative control wells. 100 nM ALK in 2.5 μL Hepes buffer was mixed with compounds and incubated for 10 min. Then 5 μL substrate (2 μM ATP) was added to start the reaction at 37 °C and incubated for 6 h.
as §3

T2 sequence (Q15046 70-581): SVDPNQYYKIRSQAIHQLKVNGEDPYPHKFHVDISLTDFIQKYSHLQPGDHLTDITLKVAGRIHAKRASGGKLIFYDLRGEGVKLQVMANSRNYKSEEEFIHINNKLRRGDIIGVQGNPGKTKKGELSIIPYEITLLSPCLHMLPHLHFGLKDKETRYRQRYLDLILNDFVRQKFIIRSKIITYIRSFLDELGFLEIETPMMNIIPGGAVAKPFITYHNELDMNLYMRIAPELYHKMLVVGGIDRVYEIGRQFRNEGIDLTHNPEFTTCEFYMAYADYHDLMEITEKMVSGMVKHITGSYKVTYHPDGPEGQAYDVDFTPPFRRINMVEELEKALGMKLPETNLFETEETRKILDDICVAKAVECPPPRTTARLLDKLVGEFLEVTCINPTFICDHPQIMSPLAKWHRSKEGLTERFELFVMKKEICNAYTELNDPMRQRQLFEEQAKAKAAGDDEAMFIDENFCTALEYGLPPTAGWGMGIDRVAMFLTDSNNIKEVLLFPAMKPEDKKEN
T3 sequence (Q9UM73 1068-1410): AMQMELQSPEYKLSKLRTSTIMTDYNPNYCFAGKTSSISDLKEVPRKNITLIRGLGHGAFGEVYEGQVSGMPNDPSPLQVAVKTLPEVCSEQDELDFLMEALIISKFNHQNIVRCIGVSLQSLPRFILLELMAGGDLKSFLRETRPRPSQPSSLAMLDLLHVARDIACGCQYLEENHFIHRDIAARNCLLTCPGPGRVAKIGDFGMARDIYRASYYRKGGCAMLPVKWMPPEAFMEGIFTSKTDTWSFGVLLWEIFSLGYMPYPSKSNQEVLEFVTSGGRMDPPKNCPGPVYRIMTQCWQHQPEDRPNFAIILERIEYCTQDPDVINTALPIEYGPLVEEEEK
T1 sequence (Q8IDJ8 entry or part of it): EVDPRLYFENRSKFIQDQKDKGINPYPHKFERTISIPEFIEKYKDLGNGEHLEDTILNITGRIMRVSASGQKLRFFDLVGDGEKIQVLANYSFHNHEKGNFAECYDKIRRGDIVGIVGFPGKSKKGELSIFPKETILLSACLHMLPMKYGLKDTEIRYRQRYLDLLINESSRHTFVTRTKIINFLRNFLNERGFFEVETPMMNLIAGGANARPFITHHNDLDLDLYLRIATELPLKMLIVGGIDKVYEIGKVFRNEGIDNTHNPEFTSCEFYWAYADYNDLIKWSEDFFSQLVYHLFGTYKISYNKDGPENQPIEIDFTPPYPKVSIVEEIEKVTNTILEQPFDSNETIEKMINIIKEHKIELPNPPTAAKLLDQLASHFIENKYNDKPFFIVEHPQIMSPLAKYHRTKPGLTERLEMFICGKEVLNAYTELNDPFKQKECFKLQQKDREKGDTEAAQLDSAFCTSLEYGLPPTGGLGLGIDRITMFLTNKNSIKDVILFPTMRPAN

Structure (SMILES): CC(C)S(=O)(=O)c1ccccc1Nc1ncnc(Nc2ccccc2S(=O)(=O)C(C)C)n1 [Compound 37]
ΔTm of PfLysRS [1]: 0.5 °C

Structure (SMILES): COc1ccc(C)cc1Nc1ncnc(Nc2ccccc2S(=O)(=O)C(C)C)n1 [Compound 39]
ΔTm of PfLysRS [1]: 4.1 °C

Structure (SMILES): COc1ccc([N+](=O)[O-])cc1Nc1ncnc(Nc2ccccc2S(=O)(=O)C(C)C)n1 [Compound 40]
ΔTm of PfLysRS [1]: 2.5 °C

Structure (SMILES): COc1ccc(F)cc1Nc1ncnc(Nc2ccccc2S(=O)(=O)C(C)C)n1 [Compound 41]
ΔTm of PfLysRS [1]: 1.9 °C

Structure (SMILES): COc1ccc(OC(F)(F)F)cc1Nc1ncnc(Nc2ccccc2S(=O)(=O)C(C)C)n1 [Compound 42]
ΔTm of PfLysRS [1]: 1.5 °C

Further lines, with some results ahead:

ΔTm of PfLysRS [1]: −0.2 °C
Structure (SMILES): COc1ccc(OC)c(Nc2cccc(Nc3ccccc3S(=O)(=O)C(C)C)c2)c1 [Compound 36d]

ΔTm of PfLysRS [1]: 3.1 °C
Structure (SMILES): COc1ccc(OC)c(Nc2cc(Nc3ccccc3S(=O)(=O)C(C)C)ncn2)c1 [Compound 36e]

ΔTm of PfLysRS [1]: 2.4 °C
Structure (SMILES): COc1ccc(OC)c(Nc2nccc(Nc3ccccc3S(=O)(=O)C(C)C)n2)c1 [Compound 36f]

HillSlope (best-fit value) ([2]; PfLysRS): 0.6952 | LogIC50 (best-fit value) ([2]; PfLysRS, log of nM): 2.755 | IC50 ([2]; PfLysRS, source data, read-out: IC50 (best-fit value)): 568 nM | IC50 ([2]; read-out: IC50 against PfLysRS): 568 nM | HillSlope (best-fit value) ([3]; HsLysRS): 1.205 | % Inhibition ([3]; HsLysRS, Log(Concentration)/nM 2.505, single repeats): 3.343% and 6.292% and 8.061% | % Inhibition ([3]; HsLysRS, Log(Concentration)/nM 3.204, single repeats): -0.8065% and 1.795% and 3.658% | % Inhibition ([3]; HsLysRS, Log(Concentration)/nM 3.903, single repeats): 7.774% and 9.643% and 10.78% | % Inhibition ([3]; HsLysRS, Log(Concentration)/nM 4.602, single repeats): 27.95% and 31.1% and 35.27% | % Inhibition ([3]; HsLysRS, Log(Concentration)/nM 5.301, single repeats): 65.61% and 74.02% and 86.84% | % Inhibition ([3]; HsLysRS, Log(Concentration)/nM 6.000, single repeats): 101.8% and 97.59% and 99.58% | LogIC50 (best-fit value) ([3]; HsLysRS, log of nM): 4.923 | IC50 ([3]; HsLysRS, source data, read-out: IC50 (best-fit value)): 83700 nM | IC50 ([3]; read-out: IC50 against HsLysRS): 84000 nM | HillSlope (best-fit value) ([4]; ALK): 0.6894 | LogIC50 (best-fit value) ([4]; ALK, log of nM): 2.857 | IC50 ([4]; ALK, source data, read-out: IC50 (best-fit value)): 719 nM | IC50 ([4]; read-out: IC50 against ALK): 719 ± 182 nM | Tm of PfLysRS, Average [1]: 48.001 °C | ΔTm at 200 µM [1]: 7.9 °C
Structure (SMILES): COc1ncccc1Nc1ncnc(Nc2ccccc2S(=O)(=O)C(C)C)n1 [Compound 38a]
Tm of PfLysRS, single repeat [1]: 48.109 °C and 48.140 °C and 47.986 °C and 47.770 °C

Tm of PfLysRS, Average [1]: 42.100 °C | ΔTm at 200 µM [1]: 2 °C
Structure (SMILES): COc1cccnc1Nc1ncnc(Nc2ccccc2S(=O)(=O)C(C)C)n1 [Compound 38b]
Tm of PfLysRS, single repeat [1]: 42.223 °C and 42.193 °C and 42.039 °C and 41.946 °C
